Values after ≈ are worked out from the molar mass of the structure shown.
Key:
[1] = Compound solubility in water; type: physicochemical
acid ceramidase (hACR) = target: T1, acid ceramidase (hACR) (Homo sapiens, UniProt Q13510); assay: Acid ceramidase inhibition, biochemical fluorescent assay with cell lysates overexpressing acid ceramidase (substrate Rbm14-12); conditions: cell lysate, 1 hr preincubation at RT, pH 4.5, Rbm14-12 6.3 μM; read-out: IC50 hACR
T1 construct: expressed in transfected cells
T1 sequence (Q13510 22-395): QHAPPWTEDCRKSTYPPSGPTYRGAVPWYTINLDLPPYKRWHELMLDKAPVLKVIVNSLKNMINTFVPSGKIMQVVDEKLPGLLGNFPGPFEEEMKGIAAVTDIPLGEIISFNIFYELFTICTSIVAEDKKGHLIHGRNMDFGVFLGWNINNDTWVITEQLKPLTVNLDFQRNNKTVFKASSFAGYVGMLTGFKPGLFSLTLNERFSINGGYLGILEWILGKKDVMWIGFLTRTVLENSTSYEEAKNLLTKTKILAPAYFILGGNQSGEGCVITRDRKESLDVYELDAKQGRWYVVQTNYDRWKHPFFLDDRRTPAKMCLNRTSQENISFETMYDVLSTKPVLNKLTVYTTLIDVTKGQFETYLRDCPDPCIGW
Procedure, shortened: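 Enzyme source was lysate from cells overexpressing acid ceramidase, 10 µg protein per reaction. Compounds were preincubated 1 h at RT in 25 mM NaAc, 100 mM NaCl, pH 4.5.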

Row | SMILES | solubility [1] | IC50 (acid ceramidase (hACR))
1 | COc1nc(C(C)(C)C)cn1C(=O)NCCCC(C)C [Example 102, 4-(tert-Butyl)-2-methoxy-N-(4-methylpentyl)-1H-imidazole-1-carboxamide] | 10 µg/mL (≈ 35.5 µM) | < 200 nM
2 | COc1nc(-c2coc(C(C)(C)C)n2)cn1C(=O)NCCC1CC1 [Example 103, 4-(2-(tert-Butyl)oxazol-4-yl)-N-(2-cyclopropylethyl)-2-methoxy-1H-imidazole-1-carboxamide] | 6 µg/mL (≈ 18.1 µM) | > 1000 nM
3 | COc1nc(C2(C)CCOCC2)cn1C(=O)NCCC1CC1 [Example 104, N-(2-Cyclopropylethyl)-2-methoxy-4-(4-methyltetrahydro-2H-pyran-4-yl)-1H-imidazole-1-carboxamide] | 28 µg/mL (≈ 91.1 µM) | 200 to 1000 nM
4 | COc1nc(C2CCCC2)cn1C(=O)NCCCOc1ccccc1 [Example 105, 4-Cyclopentyl-2-methoxy-N-(3-phenoxypropyl)-1H-imidazole-1-carboxamide] | 14 µg/mL (≈ 40.8 µM) | < 200 nM
5 | COc1nc(C2CCCC2)cn1C(=O)NC1CCCCC1 [Example 106, N-Cyclohexyl-4-cyclopentyl-2-methoxy-1H-imidazole-1-carboxamide] | 6 µg/mL (≈ 20.6 µM) | > 1000 nM
6 | CC(C)CNC(=O)n1cc(C(C)(C)C)nc1OC(C)C [Example 107, 4-(tert-Butyl)-N-iso-butyl-2-iso-propoxy-1H-imidazole-1-carboxamide] | 7 µg/mL (≈ 24.9 µM) | 200 to 1000 nM
7 | COc1nc(C2CCOC2)cn1C(=O)NC1CCCCC1 (stereo not drawn) [Example 108, N-Cyclohexyl-2-methoxy-4-(tetrahydrofuran-3-yl)-1H-imidazole-1-carboxamide] | 32 µg/mL (≈ 109 µM) | > 1000 nM
8 | COc1nc(C2CCCCC2)cn1C(=O)NCCC(C)C [Example 109, 4-Cyclohexyl-N-iso-pentyl-2-methoxy-1H-imidazole-1-carboxamide] | 13 µg/mL (≈ 44.3 µM) | 200 to 1000 nM
9 | COc1nc(C2CCOCC2)cn1C(=O)NCCC(C)C [Example 110, N-iso-Pentyl-2-methoxy-4-(tetrahydro-2H-pyran-4-yl)-1H-imidazole-1-carboxamide] | 29 µg/mL (≈ 98.2 µM) | 200 to 1000 nM
10 | COc1nc(C2CCC(F)(F)CC2)cn1C(=O)NCCC(C)C [Example 111, 4-(4,4-Difluorocyclohexyl)-N-iso-pentyl-2-methoxy-1H-imidazole-1-carboxamide] | 15 µg/mL (≈ 45.5 µM) | 200 to 1000 nM
11 | COc1nc(C(C)(C)C)cn1C(=O)NC1CCC(F)(F)CC1 [Example 112, 4-(tert-Butyl)-N-(4,4-difluorocyclohexyl)-2-methoxy-1H-imidazole-1-carboxamide] | 12 µg/mL (≈ 38.1 µM) | 200 to 1000 nM
12 | COc1nc(C(C)(C)C)cn1C(=O)NC1CC1 [Example 113, 4-(tert-Butyl)-N-cyclopropyl-2-methoxy-1H-imidazole-1-carboxamide] | 24 µg/mL (≈ 101 µM) | 200 to 1000 nM
13 | COc1nc(C(C)(C)C)cn1C(=O)NC1CCOCC1 [Example 114, 4-(tert-Butyl)-2-methoxy-N-(tetrahydro-2H-pyran-4-yl)-1H-imidazole-1-carboxamide] | 29 µg/mL (≈ 103 µM) | 200 to 1000 nM
14 | CC(C)CCNC(=O)n1cc(C(C)(C)C)nc1Oc1ccccc1F [Example 115, 4-tert-Butyl-2-(2-fluorophenoxy)-N-iso-pentyl-1H-imidazole-1-carboxamide] | 0.4 µg/mL (≈ 1.15 µM) | 200 to 1000 nM
15 | CC(C)CCNC(=O)n1cc(C(C)(C)C)nc1Oc1ccc(F)cc1 [Example 116, 4-tert-Butyl-2-(4-fluorophenoxy)-N-iso-pentyl-1H-imidazole-1-carboxamide] | 1 µg/mL (≈ 2.88 µM) | < 200 nM
16 | COCCOc1nc(C(C)(C)C)cn1C(=O)NCCC(C)C [Example 117, 4-(tert-Butyl)-N-iso-pentyl-2-(2-methoxyethoxy)-1H-imidazole-1-carboxamide] | 10 µg/mL (≈ 32.1 µM) | 200 to 1000 nM
17 | COc1nc(C2CCOC2)cn1C(=O)NCCCc1ccccc1 (stereo not drawn) [Example 118, 2-Methoxy-N-(3-phenylpropyl)-4-(tetrahydrofuran-3-yl)-1H-imidazole-1-carboxamide] | 17 µg/mL (≈ 51.6 µM) | < 200 nM
18 | COc1nc(C)cn1C(=O)NCCC(C)C [Example 119, N-iso-Pentyl-2-methoxy-4-methyl-1H-imidazole-1-carboxamide] | 14 µg/mL (≈ 62.1 µM) | 200 to 1000 nM
19 | COc1nccn1C(=O)NC1CCCCC1 [Example 120, N-Cyclohexyl-2-methoxy-1H-imidazole-1-carboxamide] | 14 µg/mL (≈ 62.7 µM) | > 1000 nM
20 | CCOc1nccn1C(=O)NCCC(C)C [Example 121, 2-Ethoxy-N-iso-pentyl-1H-imidazole-1-carboxamide] | 23 µg/mL (≈ 102 µM) | 200 to 1000 nM
21 | CC(C)CCNC(=O)n1ccnc1OC(C)C [Example 122, N-iso-Pentyl-2-iso-propoxy-1H-imidazole-1-carboxamide] | 21 µg/mL (≈ 87.7 µM) | 200 to 1000 nM
22 | COc1nccn1C(=O)NCCCC(C)C [Example 123, 2-Methoxy-N-(4-methylpentyl)-1H-imidazole-1-carboxamide] | 16 µg/mL (≈ 71 µM) | < 200 nM
23 | COc1nccn1C(=O)NCCCc1ccccc1 [Example 124, 2-methoxy-N-(3-phenylpropyl)-1H-imidazole-1-carboxamide] | 20 µg/mL (≈ 77.1 µM) | < 200 nM
24 | COc1nc(C2CC2)cn1C(=O)NC1CC1 [Example 125, N,4-Dicyclopropyl-2-methoxy-1H-imidazole-1-carboxamide] | 14 µg/mL (≈ 63.3 µM) | > 1000 nM
25 | COc1nc(C2CCCC2)cn1C(=O)NC1CC1 [Example 126, 4-Cyclopentyl-N-cyclopropyl-2-methoxy-1H-imidazole-1-carboxamide] | 13 µg/mL (≈ 52.1 µM) | 200 to 1000 nM

More lines, now with the values ahead:

Row | solubility [1] | IC50 (acid ceramidase (hACR)) | SMILES
26 | 23 µg/mL (≈ 91.5 µM) | > 1000 nM | COc1nc(C2CC2)cn1C(=O)NCCC(C)C [Example 127, 4-Cyclopropyl-N-iso-pentyl-2-methoxy-1H-imidazole-1-carboxamide]
27 | 15 µg/mL (≈ 59.7 µM) | > 1000 nM | COc1nc(C2CCOC2)cn1C(=O)NC1CC1 (stereo not drawn) [Example 128, N-Cyclopropyl-2-methoxy-4-(tetrahydrofuran-3-yl)-1H-imidazole-1-carboxamide]
28 | 16 µg/mL (≈ 60.3 µM) | > 1000 nM | CCC1(NC(=O)n2cc(C(C)(C)C)nc2OC)CC1 [Example 129, 4-(tert-Butyl)-N-(1-ethylcyclopropyl)-2-methoxy-1H-imidazole-1-carboxamide]
29 | 12 µg/mL (≈ 42.1 µM) | 200 to 1000 nM | COc1nc(C2CC2)cn1C(=O)NCCc1ccccc1 [Example 130, 4-Cyclopropyl-2-methoxy-N-phenethyl-1H-imidazole-1-carboxamide]
30 | 23 µg/mL (≈ 74.8 µM) | 200 to 1000 nM | COc1nc(C2CCOC2)cn1C(=O)NCCCCC1CC1 (stereo not drawn) [Example 131, N-(4-Cyclopropylbutyl)-2-methoxy-4-(tetrahydrofuran-3-yl)-1H-imidazole-1-carboxamide]
31 | 10 µg/mL (≈ 44 µM) | < 200 nM | CSc1nccn1C(=O)NCCC(C)C [Example 132, N-iso-Pentyl-2-(methylthio)-1H-imidazole-1-carboxamide]
32 | 18 µg/mL (≈ 47.9 µM) | < 200 nM | COc1nc(C(C)(C)C)cn1C(=O)NCCCCn1ccc(C(C)(C)C)n1 [Example 134, 4-(tert-Butyl)-N-(4-(3-(tert-butyl)-1H-pyrazol-1-yl)butyl)-2-methoxy-1H-imidazole-1-carboxamide]
33 | 26 µg/mL (≈ 106 µM) | < 200 nM | COc1nccn1C(=O)NCCc1ccccc1 [Example 135, 2-Methoxy-N-phenethyl-1H-imidazole-1-carboxamide]
34 | 22 µg/mL (≈ 80.5 µM) | < 200 nM | COc1nccn1C(=O)NCCCCc1ccccc1 [Example 136, 2-Methoxy-N-(4-phenylbutyl)-1H-imidazole-1-carboxamide]
35 | 29 µg/mL (≈ 99.6 µM) | < 200 nM | COc1nccn1C(=O)NCCCC1(C(F)(F)F)CC1 [Example 137, 2-Methoxy-N-(3-(1-(trifluoromethyl)cyclopropyl)propyl)-1H-imidazole-1-carboxamide]
36 | 27 µg/mL (≈ 88.4 µM) | < 200 nM | COc1nccn1C(=O)NCCCCC1(C(F)(F)F)CC1 [Example 138, 2-Methoxy-N-(4-(1-(trifluoromethyl)cyclopropyl)butyl)-1H-imidazole-1-carboxamide]
37 | 32 µg/mL (≈ 121 µM) | 200 to 1000 nM | COc1nc(C)cn1C(=O)NCCCC(F)(F)F [Example 139, 2-Methoxy-4-methyl-N-(4,4,4-trifluorobutyl)-1H-imidazole-1-carboxamide]
38 | 27 µg/mL (≈ 105 µM) | > 1000 nM | COc1nc(-c2ccccc2)cn1C(=O)NC1CC1 [Example 140, N-Cyclopropyl-2-methoxy-4-phenyl-1H-imidazole-1-carboxamide]
39 | 24 µg/mL (≈ 87.8 µM) | < 200 nM | COc1nc(C)cn1C(=O)NCCCc1ccccc1 [Example 141, 2-Methoxy-4-methyl-N-(3-phenylpropyl)-1H-imidazole-1-carboxamide]
40 | 22 µg/mL (≈ 91.9 µM) | 200 to 1000 nM | COc1nc(C)cn1C(=O)NCCCC(C)C [Example 142, 2-Methoxy-4-methyl-N-(4-methylpentyl)-1H-imidazole-1-carboxamide]
41 | 27 µg/mL (≈ 104 µM) | < 200 nM | COc1nc(C)cn1C(=O)NCCc1ccccc1 [Example 143, 2-Methoxy-4-methyl-N-phenethyl-1H-imidazole-1-carboxamide]
42 | 26 µg/mL (≈ 89.9 µM) | < 200 nM | COc1nc(C)cn1C(=O)NCCCOc1ccccc1 [Example 144, 2-Methoxy-4-methyl-N-(3-phenoxypropyl)-1H-imidazole-1-carboxamide]

Source: patent US20220411388A1, “SUBSTITUTED IMIDAZOLE CARBOXAMIDES AND THEIR USE IN THE TREATMENT OF MEDICAL DISORDERS” (Bial - R&D Investments, S.A., priority 2019, published 2022)
